From ChEMBL document CHEMBL3507680, “University of Dundee, Gates Library screen for HepG2 cell viability”

Assay: Human HepG2 cell viability assay in 384 well format
Type: toxicity, cell-based
Set-up: dose 125 nL, time 70.5 hour; cytotoxicity at 70.5 h: concentration not given beside the values
Conditions: HepG2 cells, read-out: Inhibition

SMILES	cytotoxicity at 70.5 h
Cc1cccc(NC(=O)CNC(=O)Cn2ncc(Cl)c(Cl)c2=O)c1C	4.71%
CCN(CC)S(=O)(=O)c1ccc(C(F)(F)F)cc1C#N	-8.21%
CN(CC1CC1)S(=O)(=O)c1ccc(C(F)(F)F)cc1C#N	-11.7%
CCC(C)(C)NC(=O)CSCc1ccc(S(=O)(=O)N(C)C)o1	-9.79%
COc1ccsc1C(=O)Nc1cc(Br)c(=O)n(C)c1	-4.19%
Cc1csc(C(C#N)C(=O)NCc2ccccc2)n1 (stereo unspecified)	-6.71%
COc1cccc(NC(=O)NCC(Cc2cnn(C)c2)C(N)=O)c1 (stereo unspecified)	-7.2%
Cn1cc(CC(CNC(=O)Nc2cccc(Cl)c2)C(N)=O)cn1 (stereo unspecified)	-6.01%
CC(C)C(c1cccnc1)N(C)C(=O)Cc1c(F)cccc1F (stereo unspecified)	-6.11%
O=C(Cc1ccc(S(=O)(=O)C(F)F)cc1)N1CCCC1	-5.59%
CC1CCN(C(=O)Cc2ccc(S(=O)(=O)C(F)F)cc2)CC1	-11%
COCCOC1CCN(C(=O)NCc2cc(C)oc2C)CC1	-8.46%
CC(C)c1nnc2n1CCN(C(C)c1nnc(-c3cccs3)o1)C2 (stereo unspecified)	-3.01%
CC(C)N(C)C(=O)CSCc1ccc(S(=O)(=O)N(C)C)o1	-10.8%
Cc1ccc2c(c1)OCCCC2NCc1nccn1Cc1ccccc1 (stereo unspecified)	-6.01%
CCN1CCN(C(=O)C(C)SC)CC1 (stereo unspecified)	-6.96%
Cc1cccc2c1OCCCC2NCc1nccn1Cc1ccccc1 (stereo unspecified)	-5.77%
Cc1ccc2c(c1)OCCCC2NCc1nccn1CC(C)C (stereo unspecified)	-7.28%
Cc1nc(CNC(C(=O)N2CCOCC2)C(C)C)no1 (stereo unspecified)	-6.16%
COCCN(CCOC)c1ncccc1Cl	-6.57%
Cc1nc(CN(C)C2CCN(Cc3cccc4cccnc34)C2)no1 (stereo unspecified)	34%
CCc1nnnn1Cc1csc(N(C)C(C)=O)n1	11.5%
O=C(NCC1(Sc2ccccc2)CC1)c1c[nH]nn1	-0.96%
O=C(NCC1(Sc2ccccc2)CC1)c1cc[nH]n1	-1.79%

SMILES	cytotoxicity at 70.5 h
CS(=O)(=O)c1ccc(C(=O)NCc2nc3cc(F)ccc3[nH]2)cc1	0.751%
Cc1noc(C)c1CC(=O)N1CCCN(C)c2ccc(Cl)cc21	-11.4%
Cc1cc(S(=O)(=O)NCC[S+](C)[O-])c(F)cc1F (stereo unspecified)	-2.05%
CC(O)(CNC(=O)c1cccnc1-n1cccn1)c1ccco1 (stereo unspecified)	-4.51%
NC(=O)CN1CCC(OCc2ccc(Cl)c(Cl)c2)CC1	-1.02%
CCc1cnccc1C(=O)NC1CCN(C(=O)OC)CC1	24.5%
CC(O)(CNC(=O)c1cccnc1-n1cccn1)c1cccs1 (stereo unspecified)	-9.1%
CC(C)(C)SCC(=O)NC(C)(C(N)=O)c1cccc(Cl)c1 (stereo unspecified)	-6.38%
CC(C)(C)CC(=O)NC(C)(C(N)=O)c1cccc(Cl)c1 (stereo unspecified)	17.3%
Cc1nnc(CN(C)CC2CCCCC2)o1	-11.8%
Cc1cc(S(=O)(=O)NCC(C)(O)CN(C)C)c(F)cc1F (stereo unspecified)	-9.95%
CC1COCCN1Cc1noc(C(C)(C)C)n1 (stereo unspecified)	19.8%
Cc1cnn(CC2CCCN2Cc2cc(=O)n3ccccc3n2)c1 (stereo unspecified)	-5.58%
Cc1cc(CN2CCCC(C)(CO)C2)ccc1F (stereo unspecified)	-6.61%
Cc1ccc(C(CNCC2CC2)N2CCOCC2)s1 (stereo unspecified)	11.7%
CS(=O)(=O)NCCCNC(=O)c1cccnc1O	-4.43%
O=C(Nc1ccc(N2CCCC2)nc1)N1CCc2sccc2C1	15.9%
Cc1cc(NC(=O)c2nc(N3CCCC3)ncc2Cl)nc(C(C)C)n1	2.57%
CS(=O)(=O)c1ccc(NC(=O)N2CCc3sccc3C2)cn1	46.4%
COc1cc(CN(C)C(=O)Nc2cc(C)on2)ccc1SC	-1.35%
N#CCCN(CCC#N)C(=O)CN1CCCC1Cc1cccc(F)c1 (stereo unspecified)	-5%
Cc1ccc(C(=O)NCCCNS(C)(=O)=O)c(=O)[nH]1	-3.31%
CNC(=O)c1cnc(/C=C/c2ccc(OC)c(O)c2)s1	-6.12%
O=C(Nc1ccc(N2CCCC2)nc1)N1CCc2ccccc2C1	3.91%

SMILES	cytotoxicity at 70.5 h
COc1ccc(NC(=O)C2CCOC2)c(N2CCN(C(C)=O)CC2)n1 (stereo unspecified)	4.61%
COc1ccc(NC(=O)c2ccc[nH]2)c(N2CCN(C(C)=O)CC2)n1	-0.755%
CCCNC(=O)Nc1cc2c(cc1SC)OCCO2	0.576%
CSc1cc2c(cc1NC(=O)NCC(C)(C)C(N)=O)OCCO2	-1.42%
CCCN1CCC(NC(=O)NCCc2nc(CC)c(C)s2)CC1	-1.97%
CCCn1nc2c(cc1=O)CN(Cc1cc(C)on1)CC2	4.88%
Cc1noc(CN2CCN(CC(C)O)CC2)n1 (stereo unspecified)	2.13%
COCCCN1CCCN(C(C)C(=O)Nc2cccc(I)c2)CC1 (stereo unspecified)	21.2%
COCCCN1CCCN(C(C)C(=O)Nc2ccnn2C(C)C)CC1 (stereo unspecified)	-4%
COc1cccc(CN(C)Cc2cccc(C#N)c2)c1OC	-3.83%
CNS(=O)(=O)c1cccc(C(C)NCc2cccc(OC)c2)c1 (stereo unspecified)	10.9%
CNS(=O)(=O)c1cccc(C(C)NCc2ccccc2)c1 (stereo unspecified)	-2.31%
CC(NCC1=Cc2cc(Cl)ccc2OC1)c1nnc2n1CCCC2 (stereo unspecified)	-3.35%
Cc1ccc(CNCc2nnc3n2CCCC3C(F)(F)F)s1 (stereo unspecified)	-10.1%
CCCS(=O)(=O)N1CCC(NC(=O)c2ccc(Cl)s2)CC1	-11.6%
CCCS(=O)(=O)N1CCC(NC(=O)c2cc(C)c(CC)s2)CC1	-12.1%
CCC(=O)NCc1cc(Br)ccc1OC(F)F	-6%
Cc1cc(C2CCCN2C(=O)NCc2cccc(F)c2)on1 (stereo unspecified)	-8.57%
CCCSCC(=O)Nc1ncn(CC(=O)NCc2ccccc2)n1	-5.44%
Cc1cnn(Cc2cc(F)ccc2F)c1NC(=O)NC1CC1	-7.32%
CCCNC(=O)CCNC(=O)Cc1nc(-c2ccco2)oc1C	-4.05%
Cc1cccc(NC(=O)[C@@H]2CCCN2CC(=O)N2CCCCCC2)n1	-4.62%
Cc1cnn(C2CN(CC(O)c3ccc4c(c3)OCCO4)C2)c1 (stereo unspecified)	-3.93%
Cc1cc(S(=O)(=O)N2CCCc3ccc(F)cc32)sc1C(=O)O	-2.82%

SMILES	cytotoxicity at 70.5 h
N#CC(Sc1nnnn1C1CCOCC1)C1CCCCC1 (stereo unspecified)	-3.62%
Cc1cc(C(=O)NC2CCCN(c3ccccc3)C2=O)on1 (stereo unspecified)	0.654%
CS(=O)(=O)NCC(=O)N1CCCC1c1noc(C2CC2)n1 (stereo unspecified)	-2.26%
Cc1cc(NC(=O)Cn2cc(C#N)c(=O)c3cc(Br)ccc32)no1	0.537%
COCc1nc2n(n1)CCCC2Nc1nc(C2CC2)ns1 (stereo unspecified)	1.93%
CCc1nsc(NC2CCCn3nc(COC)nc32)n1 (stereo unspecified)	-3.94%
CSC(C)(C)CNC(=O)NC1CCN(C)CC1	-3.38%
COc1cccc(Cc2nnc(SC3CCOC3=O)o2)c1 (stereo unspecified)	-5.61%
COC(=O)CCN1CCCC1c1ccccc1Cl (stereo unspecified)	-6.47%
N#Cc1cccc(CS(=O)(=O)NCCC(O)c2ccccc2)c1 (stereo unspecified)	-10%
Cc1ccc(C2COCCN2C(=O)c2ccc(N(C)C)cc2)o1 (stereo unspecified)	-8.97%
COc1ncccc1NC(=O)N1CCC(CNC(C)=O)CC1	-7.14%
O=C(NCCN1CCOCC1)NCc1ncc(-c2ccccc2)o1	-11.5%
CCc1ncc(C(=O)NCCNC(=O)Cc2ccc(F)cc2)s1	-11.7%
Cn1c(C(=O)N2CCC(C(=O)N3CCCC3)CC2)c(Cl)c2ccccc21	-9.31%
CCS(=O)(=O)c1ccc(N2CCC(NC(=O)CCC(C)C)CC2)cc1	-9.09%
Cn1ccnc1SCc1nc(C(C)(C)NC(=O)OC(C)(C)C)no1	12%
c1ccc2c(N3CCCCC3Cn3cncn3)ncnc2c1 (stereo unspecified)	-9.62%
Cc1nc(C)n(CC2CCCCN2CC(=O)Nc2nncs2)n1 (stereo unspecified)	-1.06%
Cc1cnn(CCNCc2ccc(OCC(N)=O)cc2)c1	-6.65%
Cc1cc(C)n(CC2CCCCN2CC(=O)Nc2cccnc2)n1 (stereo unspecified)	17.8%
O=C(CC1=CCCCC1)NCCc1csc(N2CCCC2)n1	-0.0397%
CC(O)CN1CCN(C(=O)c2cnn(-c3ccc(Cl)cc3)c2)CC1 (stereo unspecified)	-5.02%
c1nc(N2CCCCC2Cn2cncn2)c2ccsc2n1 (stereo unspecified)	14.7%

SMILES	cytotoxicity at 70.5 h
c1ccc(OCCN2CCCC(c3noc(C4CC4)n3)C2)cc1 (stereo unspecified)	-0.448%
O=C(O)c1ccc(F)c(S(=O)(=O)Nc2c(F)cccc2-n2cccn2)c1	-5.11%
c1coc(CN2CCO[C@@]3(CCC[C@@H]3COCc3nccs3)C2)c1	-13.3%
Cc1noc(C)c1CN1C[C@@H]2COC[C@@H](C(=O)N3CCCO3)[C@@H]2C1	51.2%
Cc1ccc(S(=O)(=O)NCC(C)(C)N)c(F)c1	-6.25%
Cc1cc(S(=O)(=O)NCC(C)(C)N)c(F)cc1F	-0.878%
NCC1(c2cccc(Br)c2)CCOCC1	-5.45%
COc1c(CNC2CCc3c(Cl)cccc32)c(C)nn1C (stereo unspecified)	-12.4%
O=C1COC2(CCN(CC3CC3)CC2)CN1c1ccsc1	-8.69%
CN(C)[C@@H]1CCN(C(=O)CC2CC2)[C@H]1Cc1cnn(C)c1	-7.51%
CCN1C[C@H]2[C@@H](C1)N(S(=O)(=O)c1ccccc1)CC[C@H]2OC	-2.93%
COCCN1C(=O)C[C@H]2[C@H]1CCN2Cc1ccccc1	-4.06%
COCCCNC(=O)c1cc(-c2cnc(N3CCOCC3)nc2)cn1C	-6.15%
Cc1cccc(C(=O)N2CC[C@@H]3[C@H]2CCC(=O)N3c2ccccc2)n1	17.8%
O=C(C1CCOCC1)N1CCO[C@H]2[C@H](Oc3ccccn3)CC[C@@H]21	13.9%
c1cncc(CN2CC[C@H]3O[C@@H](COCC4CCOCC4)CC[C@H]32)c1	-7.03%
c1cncc(CN2CCn3c(Cn4cncn4)cnc3C2)c1	-7.44%
O=C(c1ccco1)N1CCN2C[C@H](OCc3cccnc3)C[C@H]2C1	-12.3%
c1cncc(OC[C@@H]2CCC[C@@]23CN(Cc2nccs2)CCO3)c1	-2.19%
c1ccc(COC[C@H]2CC[C@H]3[C@H](CCN3Cc3ccccn3)O2)nc1	-10.3%
